# According to PubChem BioAssay (NCI):
#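 Dose response: 5 concentrations. Exposure: 48 h. Format: 96-well plates. Endpoint: linear interpolation; highest concentration if not reached. The concentration for 50% growth inhibition is given as GI50. TGI: concentration producing complete growth inhibition.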
# Experiments:
# Assay in all cases: inhibition of tumour cell growth, NCI panel, 48 h
# DU-145 prostate = tested on: DU-145 prostate
# HL-60(TB) leukemia = tested on: HL-60(TB) leukemia
# OVCAR-5 ovarian = tested on: OVCAR-5 ovarian
# MDA-MB-231 breast = tested on: MDA-MB-231 breast
# NCI-H522 lung = tested on: NCI-H522 lung
# HOP-92 NSCLC = tested on: HOP-92 NSCLC
# NCI-H23 lung = tested on: NCI-H23 lung
# CAKI-1 renal = tested on: CAKI-1 renal
# SNB-19 CNS = tested on: SNB-19 CNS
# EKVX NSCLC = tested on: EKVX NSCLC
# KM12 colon = tested on: KM12 colon
# PC-3 prostate = tested on: PC-3 prostate
# RPMI-8226 leukemia = tested on: RPMI-8226 leukemia
# SK-MEL-28 melanoma = tested on: SK-MEL-28 melanoma
# U251 CNS = tested on: U251 CNS
# MOLT-4 leukemia = tested on: MOLT-4 leukemia
# ACHN renal = tested on: ACHN renal
# HOP-62 NSCLC = tested on: HOP-62 NSCLC
# MCF7 breast = tested on: MCF7 breast
# LOX IMVI melanoma = tested on: LOX IMVI melanoma
# SK-OV-3 ovarian = tested on: SK-OV-3 ovarian
# NCI/ADR-RES ovarian = tested on: NCI/ADR-RES ovarian
# OVCAR-4 ovarian = tested on: OVCAR-4 ovarian
# SF-268 CNS = tested on: SF-268 CNS
# A549 NSCLC = tested on: A549 NSCLC
# A498 renal = tested on: A498 renal
# K-562 leukemia = tested on: K-562 leukemia
# SN12C renal = tested on: SN12C renal
# COLO 205 colon = tested on: COLO 205 colon
smiles,measurement,setting,value
Cc1c2ccc(N(C)c3ccnc(Nc4cccc(S(N)(=O)=O)c4)n3)cc2nn1C,GI50,DU-145 prostate,9.06 µM
same,TGI,DU-145 prostate,> 25 µM
same,GI50,HL-60(TB) leukemia,8.44 µM
same,TGI,HL-60(TB) leukemia,> 19.1 µM
same,GI50,OVCAR-5 ovarian,11.4 µM
same,TGI,OVCAR-5 ovarian,> 25 µM
same,GI50,MDA-MB-231 breast,8.47 µM
same,TGI,MDA-MB-231 breast,> 25 µM
same,GI50,NCI-H522 lung,6.09 µM
same,TGI,NCI-H522 lung,23.7 µM
same,GI50,HOP-92 NSCLC,5.41 µM
same,TGI,HOP-92 NSCLC,17.9 µM
same,GI50,NCI-H23 lung,7.49 µM
same,TGI,NCI-H23 lung,> 25 µM
same,GI50,CAKI-1 renal,7.73 µM
same,TGI,CAKI-1 renal,24.7 µM
same,GI50,SNB-19 CNS,> 22.9 µM
same,TGI,SNB-19 CNS,> 25 µM
same,GI50,EKVX NSCLC,11.8 µM
same,TGI,EKVX NSCLC,> 25 µM
same,GI50,KM12 colon,8.12 µM
same,TGI,KM12 colon,> 25 µM
same,GI50,PC-3 prostate,9.23 µM
same,TGI,PC-3 prostate,> 25 µM
same,GI50,RPMI-8226 leukemia,13.6 µM
same,TGI,RPMI-8226 leukemia,> 25 µM
same,GI50,SK-MEL-28 melanoma,9.95 µM
same,TGI,SK-MEL-28 melanoma,> 25 µM
same,GI50,U251 CNS,10.9 µM
same,TGI,U251 CNS,> 25 µM
same,GI50,MOLT-4 leukemia,8.81 µM
same,TGI,MOLT-4 leukemia,> 23.6 µM
same,GI50,ACHN renal,8.12 µM
same,TGI,ACHN renal,> 25 µM
same,GI50,HOP-62 NSCLC,9.03 µM
same,TGI,HOP-62 NSCLC,> 25 µM
same,GI50,MCF7 breast,8.95 µM
same,TGI,MCF7 breast,> 25 µM
same,GI50,LOX IMVI melanoma,6.86 µM
same,TGI,LOX IMVI melanoma,> 25 µM
same,GI50,SK-OV-3 ovarian,7.03 µM
same,TGI,SK-OV-3 ovarian,20.6 µM
same,GI50,NCI/ADR-RES ovarian,> 19.7 µM
same,TGI,NCI/ADR-RES ovarian,> 25 µM
same,GI50,OVCAR-4 ovarian,6.23 µM
same,TGI,OVCAR-4 ovarian,> 25 µM
same,GI50,SF-268 CNS,8.51 µM
same,TGI,SF-268 CNS,> 25 µM
same,GI50,A549 NSCLC,11.9 µM
same,TGI,A549 NSCLC,> 25 µM
same,GI50,A498 renal,1.89 µM
same,TGI,A498 renal,> 17.9 µM
same,GI50,K-562 leukemia,5.54 µM
same,TGI,K-562 leukemia,> 25 µM
same,GI50,SN12C renal,8.75 µM
same,TGI,SN12C renal,> 25 µM
same,GI50,COLO 205 colon,12.5 µM
